Measured values reported in the supplement of paper PMC10702517.
± gives the standard deviation.

Key:
[1] = chemical recovery from spiked human plasma; higher = better extraction; settings: pooled human plasma
[2] = chemical recovery by SPE of plasma after PDMS sampling; higher = better extraction; settings: pooled human plasma, extraction method: HLB SPE of plasma after PES
[3] = chemical recovery into PDMS from spiked human plasma; higher = better extraction; settings: pooled human plasma, extraction method: PES with PDMS
[4] = extraction method: SPE only (HLB 96-well), PES comparison experiment
[5] = extraction method: PES+SPE (3 d PDMS equilibration then HLB SPE)
[6] = extraction method: SPE only (HLB 96-well)
[7] = extraction method: solvent precipitation (ACN + hexane)
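Wherever chemical recovery by SPE of plasma after PDMS sampling is given: over 400 spiked chemicals quantified by LC-HRMS or GC-HRMS via internal standard calibration, recovery relative to spike mix added to unspiked plasma extract to correct matrix effects.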

Compound | chemical recovery [1, 4] | chemical recovery by SPE of plasma ([2]; equilibration time (d): 3) | chemical recovery by SPE of plasma ([2]; equilibration time (d): 6) | chemical recovery [1, 5] | chemical recovery [1, 6] | chemical recovery [1, 7] | chemical recovery by SPE of plasma ([2]; equilibration time (d): 1) | chemical recovery into PDMS ([3]; equilibration time (d): 3) | chemical recovery into PDMS ([3]; equilibration time (d): 6)
C[C@]12C=CC(=O)C=C1CC[C@@H]1[C@@H]2[C@@H](O)C[C@@]2(C)[C@H]1CC[C@]2(O)C(=O)CO [Prednisolone] | 61.1 ± 7.2% | 48.4 ± 2.3% | 44.5 ± 1.3% | – | – | – | – | – | –
CC(CN1c2ccccc2Sc2ccccc21)N(C)C (stereo not given) [Promethazin] | 43.8 ± 7.1% | 0.172 ± 0.13% | 0.00932 ± 0.01% | 0.204 ± 0.12% | 55.2 ± 14% | 74.2 ± 4.5% | 0.16 ± 0.11% | – | –
CCCOc1nn(C(=O)NS(=O)(=O)c2ccccc2C(=O)OC)c(=O)n1C [Propoxycarbazone] | 43.2 ± 6.2% | 32 ± 2.5% | 29.4 ± 1.4% | 39.2 ± 4.4% | 31.4 ± 2.8% | 75.6 ± 5.4% | 27.1 ± 5.6% | – | –
COc1nc(C)nc(NC(=O)NS(=O)(=O)c2ccccc2CCC(F)(F)F)n1 [Prosulfuron] | 42.7 ± 6.3% | 50.6 ± 4.8% | 45.3 ± 5.2% | 44.3 ± 3.7% | 37.9 ± 4.5% | 75.5 ± 0.94% | 48.5 ± 11% | – | –
Cc1cnc2c(C(=O)O)c(Cl)ccc2c1 [Quinmerac] | 52.2 ± 6.4% | 61.1 ± 6.2% | 56.5 ± 1.8% | 43.6 ± 2.5% | 40.8 ± 3.5% | 65.8 ± 4.1% | 54.5 ± 9.6% | – | –
O=C(c1ccc(OCCN2CCCCC2)cc1)c1c(-c2ccc(O)cc2)sc2cc(O)ccc12 [Raloxifene] | 47.4 ± 8.5% | 46.1 ± 2.4% | 39.8 ± 2.8% | – | – | 63.5 ± 3.5% | 41.3 ± 2.1% | – | –
CC[C@H]1OC(=O)[C@H](C)[C@@H](O[C@H]2C[C@@](C)(OC)[C@@H](O)[C@H](C)O2)[C@H](C)[C@@H](O[C@@H]2O[C@H](C)C[C@H](N(C)C)[C@H]2O)[C@](C)(O)C[C@@H](C)/C(=N\OCOCCOC)[C@H](C)[C@@H](O)[C@]1(C)O [Roxithromycin] | 36.2 ± 4.7% | 29.5 ± 4.3% | 26.9 ± 3.6% | – | – | – | 28.8 ± 5.2% | – | –
O=C(O)c1ccccc1O [Salicylic acid] | 69.7 ± 4.9% | 78.9 ± 5.7% | 59.8 ± 3.9% | – | – | – | 61.1 ± 13% | – | –
CC(C)NCC(O)c1ccc(NS(C)(=O)=O)cc1 (stereo not given) [Sotalol] | – | 21.5 ± 3.9% | 30.9 ± 12% | – | 20.9 ± 5.4% | 75 ± 2.5% | – | – | –
CCCN(CC)CC1COC2(CCC(C(C)(C)C)CC2)O1 (stereo not given) [Spiroxamine] | 43.7 ± 7.8% | 0.0829 ± 0.053% | 0.0434 ± 0.0086% | 0.223 ± 0.025% | 47.5 ± 0.85% | – | 0.0924 ± 0.066% | – | –
COc1cc(NS(=O)(=O)c2ccc(N)cc2)nc(OC)n1 [Sulfadimethoxine] | 45.7 ± 3.6% | 50.2 ± 5.5% | 48.5 ± 7.4% | 33.4 ± 3.4% | 30.1 ± 3.6% | – | 49 ± 9.9% | – | –
CC/C(=C(\c1ccccc1)c1ccc(OCCN(C)C)cc1)c1ccccc1 [Tamoxifen] | 38.5 ± 11% | 0.167 ± 0.14% | 0.104 ± 0.056% | 0.265 ± 0.056% | 39.4 ± 8.3% | – | 0.427 ± 0.08% | – | –
CC(C)(c1cc(Br)c(O)c(Br)c1)c1cc(Br)c(O)c(Br)c1 [Tetrabromobisphenol A] | 29.4 ± 10% | 30.4 ± 11% | – | – | – | 14.4 ± 1.4% | – | – | –
CCCCNc1ccc(C(=O)OCCN(C)C)cc1 [Tetracain] | – | – | – | 0.105 ± 0.0078% | 2.67 ± 1.9% | – | 0.00668 ± 0.0083% | – | –
O=c1[nH]nc(C(F)(F)F)s1 [Thiadone] | 15.9 ± 4.4% | 47.9 ± 6.8% | 41.5 ± 14% | – | – | – | – | – | –
Cc1cccc(Nc2ccncc2S(=O)(=O)NC(=O)NC(C)C)c1 [Torasemide] | 49.1 ± 3.4% | 54 ± 2.9% | 50.9 ± 2.3% | 38.9 ± 4.2% | 43.8 ± 3.6% | 73.1 ± 4.1% | 50.8 ± 5.4% | – | –
C[C@]12C=CC(=O)C=C1CC[C@H]1[C@@H]3C[C@@H](O)[C@](O)(C(=O)CO)[C@@]3(C)C[C@H](O)[C@@]12F [Triamcinolone] | 50.5 ± 3.2% | 58.4 ± 5.8% | 54.9 ± 10% | – | – | – | 55.2 ± 12% | – | –
COP(=O)(OC)C(O)C(Cl)(Cl)Cl (stereo not given) [Trichlorfon] | 43.1 ± 8.1% | 25.3 ± 0.61% | 18.2 ± 1.2% | 13.2 ± 1.2% | 33.1 ± 1.9% | 0.0499 ± 0.086% | 30.8 ± 2.4% | – | –
CC[C@H]1OC(=O)C[C@@H](O)[C@H](C)[C@@H](O[C@@H]2O[C@H](C)[C@@H](O[C@H]3C[C@@](C)(O)[C@@H](O)[C@H](C)O3)[C@H](N(C)C)[C@H]2O)[C@@H](CC=O)C[C@@H](C)C(=O)/C=C/C(C)=C/[C@@H]1CO[C@@H]1O[C@H](C)[C@@H](O)[C@@H](OC)[C@H]1OC [TylosinCH4O] | 33.9 ± 4.8% | 35.1 ± 4.1% | 33 ± 2.3% | – | – | – | 30.2 ± 3.2% | – | –
CCCc1nc(C)c2c(=O)nc(-c3cc(S(=O)(=O)N4CCN(CC)CC4)ccc3OCC)[nH]n12 [Vardenafil] | 35.1 ± 8.2% | 7.22 ± 1.1% | 4.01 ± 0.43% | – | – | – | 13.4 ± 2.1% | – | –
CC(=O)CC(c1ccccc1)c1c(O)c2ccccc2oc1=O (stereo not given) [Warfarin] | 56.6 ± 4.3% | 66.6 ± 3.5% | 62.8 ± 4.6% | 50 ± 3.2% | 44.9 ± 2.1% | 72.5 ± 6.1% | 62.2 ± 10% | – | –
O=C1Cc2cc(CCN3CCN(c4nsc5ccccc45)CC3)c(Cl)cc2N1 [Ziprasidone] | 41.5 ± 7.6% | 34 ± 4.3% | 25.3 ± 2.6% | 22.9 ± 2.4% | 38.7 ± 2.6% | 76 ± 9.8% | 37.1 ± 6.7% | – | –
C(=C/c1ccccc1)/c1ccccc1 [cis-Stilbene] | 3.65 ± 1.4% | – | 0.481 ± 2.9% | – | 3.93 ± 0.065% | – | – | – | –
Cc1ccc(S(=O)(=O)O)c(C)c1 [m-Xylene-4-sulfonic acid] | 45.2 ± 4.9% | 36.3 ± 2.3% | 38.3 ± 8.9% | – | 46.9 ± 14% | 74.3 ± 4.9% | – | – | –
C/C(=C\c1ccccc1)c1ccccc1 [trans-a-Methylstilbene] | – | – | – | – | – | – | – | 97.6 ± 13% | 112 ± 44%
